Common to all, as to assay: Trophozoite growth inhibition, ATP content (ATPlite) assay
(In general: ATP-based viability assays read luminescence as a measure of living cells.)

In test [1] the test system is G. lamblia WB trophozoites. Type of test: cell-based. Particulars: Giardia duodenalis, 72 h, read-out: Mean [IC50 ± SE(IC50)] G. lamblia WB. The protocol: (§1) Antigiardia assays followed by enzyme inhibition determination facilitated the selection of compounds for permeation and stability studies by in vitro methods, prior to advancing to in vivo studies. Compound potency was evaluated first by measuring G. lamblia trophozoite growth as a function of the compound concentration and calculating the IC50 values. Potency in Entamoeba histolytica trophozoites was also determined because of the early report that fumagillin cured amebiasis ([19]). The intent was to test whether the compounds would be suitable to treat gastrointestinal amebiasis rather than the invasive form of the disease, given that the designed strategy was based on reducing compound permeation across the epithelial cell barrier. […] Trophozoite growth was determined by monitoring the ATP cell content using a high-throughput homogeneous assay developed previously for G. lamblia ([57]). The ATP content serves as a marker of cell integrity since ATP degrades rapidly when cells die and the luminescence signal generated by luciferase requires ATP. The same assay was also adopted in 96-well plates for E. histolytica trophozoite growth measurement, as described in Materials and Methods. A similar E. histolytica trophozoite ATP content assay was described previously ([58]). Fumagillin, TNP-470, and a standard-of-care drug (metronidazole) served as positive controls, and cells without the drug (in the presence of 0.5% dimethyl sulfoxide [DMSO]) served as the negative control.
(§2) Trophozoites of G. lamblia isolates WB and GS were grown anaerobically in borosilicate glass screw-cap culture tubes (Fisher Scientific) at pH 7.0 in Keister’s modified TYI-S-33 medium (ATCC). The medium was supplemented with 10% heat-inactivated bovine serum (Sigma-Aldrich) and 0.05% bovine bile (Sigma-Aldrich). To attain low-oxygen-tension conditions, the tubes were filled to 85% to 90% of their total volume capacity and incubated without shaking at 37°C. Subcultures (2 × 10^5 trophozoites per tube) were made three times a week. Detachment of trophozoites for inoculation was achieved by chilling the cultures on ice for 20 min. Culturing and detachment of metronidazole-resistant G. lamblia assemblage A 713M3 and assemblage B 1279-M1 trophozoites followed the same protocol, except that the growth medium was supplemented with metronidazole, with the concentration gradually being increased to 10 μM.
(§3) The growth inhibition assays were performed in duplicate, once for each compound, for all compounds except fumagillin, which served as a positive control and whose inhibitory ability was measured multiple times as new sets of compounds were tested. All dry compounds except for fumagillin were dissolved in dimethyl sulfoxide (DMSO; Sigma) at a stock concentration of 10 mM and then diluted 1:100 in growth medium to a final compound concentration of 100 μM; fumagillin was diluted to 20 μM. Compound solution aliquots (100 μl) were prepared by 3-fold serial dilutions in growth medium containing 0.5% DMSO and distributed into 96-well assay plates. This was followed by the addition of 10 μl G. lamblia or E. histolytica culture containing 10,000 trophozoites. Fumagillin served as a positive control, and the medium-diluted DMSO alone served as a negative control. The assay plates were placed in a BD GasPak EZ container system (BD Diagnostics) to create an anaerobic growth environment. The sealed containers were incubated at 37°C for 72 h. Following incubation, 70 μl/well of the ATPlite reagent (PerkinElmer) was added to the assay plates for one-step lysis and ATP level detection. The luminescent signals of the assay plates were measured on an EnSpire 2300 plate reader (PerkinElmer). Concentration-response titration points for each compound were fitted to a 4-parameter logistic nonlinear regression model using the KaleidaGraph tool, yielding the IC50 value and standard error (SE).

For test [2], the system named is E. histolytica HM1:IMSS trophozoites. In kind it is cell-based. Particulars: Entamoeba histolytica, 72 h, read-out: Mean [IC50 ± SE(IC50)] E. histolytica HM1: IMSS. The protocol: as §1
E. histolytica strain HM1:IMSS trophozoites were grown at 37°C in TYI-S-33 medium supplemented with penicillin (100 U/ml) and streptomycin sulfate (100 μg/ml) ([65]). Trophozoites were grown anaerobically in borosilicate tubes or T25 flasks, and subcultures were made 1 to 2 times a week. Trophozoites were detached for inoculation by chilling the cultures on ice for 20 min.
as §3, with “The sealed containers were incubated at 37°C for 72 h.” left out

In test [3] the test system is G. lamblia GS trophozoites. In kind it is cell-based, Giardia lamblia. The settings on record: for IC50: Giardia duodenalis, 72 h, read-out: Mean [IC50 ± SE(IC50)] G. lamblia GS. As to the method: as §1, §2, §3
[4] abbreviates: trophozoite growth, ATP content.

Like-named read-outs stand apart in the source and are kept apart here.

In the case of `COC1C(OC(=O)NC(=O)CN(C)C)CCC2(CO2)C1C1(C)OC1CC=C(C)C` (centres unmarked) [Compound 1], the figures for the IC50 in test [1] (setting [4]), in test [2] (setting [4]) and in test [3] (setting [4]) were 2 ± 0.2 nM, 4.7 ± 0.5 nM and 2.4 ± 0.5 nM, respectively.
For `COC1C(OC(=O)NC(=O)CN2CCCCC2)CCC2(CO2)C1C1(C)OC1CC=C(C)C` (centres unmarked) [Compound 2], the figures for the half-inhibitory concentration (IC50) in test [1] (setting [4]), in test [2] (setting [4]) and in test [3] (setting [4]) were 90.9 ± 34.3 nM, 435 ± 79 nM and 82.5 ± 26.4 nM, respectively.
Consider `COC1C(OC(=O)NC(=O)CN2CCN(C)CC2)CCC2(CO2)C1C1(C)OC1CC=C(C)C` (centres unmarked) [Compound 5], for which the IC50 (commonly the concentration needed to halve the response being measured) in test [1] (setting [4]) turned out to be 22.3 ± 1.4 nM; in test [2] (setting [4]), 117 ± 8.4 nM; in test [3] (setting [4]), 12.3 ± 2.5 nM.
Taken in the same sequence, the figures for `COC1C(OC(=O)NC(=O)CN2CCN(CCO)CC2)CCC2(CO2)C1C1(C)OC1CC=C(C)C` (centres unmarked) [Compound 6] were 53.6 ± 10.6 nM, 223 ± 29.8 nM and 37 ± 4.4 nM.
Taken in the same sequence, the figures for `COC1C(OC(=O)Nc2ccccc2)CCC2(CO2)C1C1(C)OC1CC=C(C)C` (centres unmarked) [Compound 7] were 3.7 ± 1 nM, 14.6 ± 2.6 nM and 7 ± 1 nM.
On to `CCOC(=O)c1ccc(NC(=O)OC2CCC3(CO3)C(C3(C)OC3CC=C(C)C)C2OC)cc1` (centres unmarked) [Compound 8], for which the IC50 in test [1] (setting [4]) was determined as 12.5 ± 4.2 nM; in test [2] (setting [4]), 54 ± 4.3 nM; in test [3] (setting [4]) it was 27.2 ± 18.1 nM. In test [3] (trophozoite IC50), the “fold less active than compound 7” value is recorded as about 4 fold.
On to `CO[C@@H]1[C@H](OC(=O)Nc2ccc(C(=O)N3CCC(O)CC3)cc2)CC[C@]2(CO2)[C@H]1[C@@]1(C)O[C@@H]1CC=C(C)C` [Compound 10, (3R,4S,5S,6R)-5-methoxy-4-((2R,3R)-2-methyl-3-(3-methylbut-2-en-1-yl)oxiran-2-yl)-1-oxaspiro[2.5]octan-6-yl (4-(4-hydroxypiperidine-1-carbonyl)phenyl)carbamate], for which the 50% inhibitory concentration (IC50) in test [1] was determined as 171 ± 21 nM; in test [2] it was 32 ± 2.1 nM; in test [3], 38.4 ± 3.4 nM.
For the compound `COC1C(OC(=O)Nc2ccc(CC(=O)O)cc2)CCC2(CO2)C1C1(C)OC1CC=C(C)C` (centres unmarked) [Compound 12], the IC50 stood at 342 ± 50 nM in test [1] (setting [4]), 94 ± 6.8 nM in test [2] (setting [4]) and 63.2 ± 10 nM in test [3] (setting [4]).
`CCOC(=O)CNC(=O)OC1CCC2(CO2)C(C2(C)OC2CC=C(C)C)C1OC` (centres unmarked) [Compound 13]: the IC50 worked out at 13.1 ± 2.4 nM in test [1], 23.7 ± 2.6 nM in test [2] and 1.5 ± 0.3 nM in test [3].
Regarding `COC1C(OC(=O)NCC(=O)O)CCC2(CO2)C1C1(C)OC1CC=C(C)C` (centres unmarked) [Compound 14], the values for the half-maximal inhibitory concentration (IC50) in test [1] (setting [4]), in test [2] (setting [4]) and in test [3] (setting [4]) were over 100000 nM, 11200 ± 123 nM and over 100000 nM, respectively.
In the case of `COC1C(OC(=O)N2CCCCC2)CCC2(CO2)C1C1(C)OC1CC=C(C)C` (centres unmarked) [Compound 15], the IC50 in test [1] (setting [4]) was 4.9 ± 2.2 nM; in test [2] (setting [4]), 7.8 ± 0.6 nM; in test [3] (setting [4]), 2.9 ± 0.8 nM.
On to `COC1C(OC(=O)N2CCN(c3ccccc3)CC2)CCC2(CO2)C1C1(C)OC1CC=C(C)C` (centres unmarked) [Compound 17], for which the IC50 in test [1] (setting [4]) is 251 ± 70 nM; in test [2] (setting [4]), over 100000 nM; in test [3] (setting [4]), 109 ± 13.7 nM. Also, the “fold loss of potency compared to compound 16” value in test [3] (G. lamblia trophozoites) turned out to be 100 fold.
For `CCOC(=O)CO[C@@H]1CC[C@]2(CO2)[C@@H]([C@@]2(C)O[C@@H]2CC=C(C)C)[C@@H]1OC` [Compound 18, ethyl 2-(((3R,4S,5S,6R)-5-methoxy-4-((2R,3R)-2-methyl-3-(3-methylbut-2-en-1-yl)oxiran-2-yl)-1-oxaspiro[2.5]octan-6-yl)oxy)acetate], the half-maximal inhibitory concentration (IC50) in test [1] was 42.6 ± 17.5 nM; in test [2] it was 318 ± 16 nM; in test [3], 40.1 ± 4.8 nM.
In the case of `COC1C(OCC(=O)O)CCC2(CO2)C1C1(C)OC1CC=C(C)C` (centres unmarked) [Compound 19], the IC50 in test [1] (setting [4]), in test [2] (setting [4]) and in test [3] (setting [4]) was over 2000 nM throughout.
With `CO[C@@H]1[C@H](O)CC[C@]2(CO2)[C@H]1[C@@]1(C)O[C@@H]1CC=C(C)C` [Fumagillol], the IC50 in test [3] stood at 3400 ± 489 nM.
On to `CO[C@@H]1[C@H](OC(=O)NC(=O)CCl)CC[C@]2(CO2)[C@H]1[C@@]1(C)O[C@@H]1CC=C(C)C` [TNP-470, (3R,4S,5S,6R)-5-methoxy-4-((2R,3R)-2-methyl-3-(3-methylbut-2-en-1-yl)oxiran-2-yl)-1-oxaspiro[2.5]octan-6-yl (2-chloroacetyl)carbamate, reference compound], for which the half-inhibitory concentration (IC50) in test [1] was determined as 2.6 ± 0.2 nM; in test [3] it was 3.4 ± 0.7 nM.
